Experimental data reported in US12030896B2, “PIKfyve inhibitors” (Mayo Foundation for Medical Education and Research, priority 2018, dated 2024).
“And” between values parts separate entries of the source, which are not always exact repeats. Identical values can stand only once. “Also recorded” adds a separate entry of the source. Like-named read-outs stand apart in the source and are kept apart here.

Columns and labels:
cells in culture = experiment: Vacuolization activity in cells in culture; format: cell-based
From the text: As used herein the term “EC50 (μM)” refers to the μM concentration of a compound that is required for 50% activity in a vacuolization assay.
Example 2 is a biotinylated derivative of the compound of Example 1.

468 kinases = experiment: Kinase selectivity panel (Treespot dendrogram); format: binding
Method: In contrast, 50 nM Apilimod inhibited two kinases to 1% or 10%, and 3 kinases to 35% of control. To examine non-specific binding at higher concentrations, Example 1, Example 3, and Apilimod were tested at 5000 nM. […] PIKfyve is represented at the bottom left of each dendrogram.

[1] = Pharmacokinetic study of Example 3 in mouse (IV, IP); format: in vivo, C57 Mouse
Method: Species: C57 Mouse. Dose Route: IV&IP. Formulation Vehicle: IV&IP: 10% DMSO/30% PEG400/60% Saline. Dose Level: IV (5 mg/kg) and IP (30 mg/kg). Dose Volume: IV (5 mL/kg) and IP (10 mL/kg). Formulation concentrations: IV (1 mg/mL) and IP (3 mg/mL). LLOQ: IV (2 ng/mL) and IP (10 ng/mL).

[2] = 5 mg/kg IV, individual animals 101M-103M
[3] = 30 mg/kg IP, individual animals 201M-203M

SMILES: Cc1ccc(Nc2nc(N/N=C/c3c[nH]c4ccccc34)cc(N3CCOCC3)n2)cc1 [Example 3, (E)-4-(2-((1H-indol-3-yl)methylene)hydrazinyl)-6-morpholino-N-(p-tolyl)pyrimidin-2-amine]
- EC50 (cells in culture): 4 nM
- number of kinases blocked to 1% activity level (468 kinases; 5000 nM): 1
- number of kinases blocked to 10% activity level (468 kinases; 5000 nM): 1
- number of kinases blocked to 35% activity level (468 kinases; 5000 nM): 4
- selectivity for PIKfyve (468 kinases; comparison of Example 1, Example 3 and apilimod): more selective; also recorded: highest selectivity
- Plasma concentrations ([1]; 5 mg/kg IV, 0.08 h, individual animals 101M-103M): 9197.2 ng/mL and 4387.4 ng/mL and 7116.5 ng/mL
- Plasma concentrations ([1]; 5 mg/kg IV, 0.25 h, individual animals 101M-103M): 7195.4 ng/mL and 2758.6 ng/mL and 3627.2 ng/mL
- Plasma concentrations ([1]; 5 mg/kg IV, 0.50 h, individual animals 101M-103M): 1641.4 ng/mL and 2830.9 ng/mL
- Plasma concentrations ([1]; 5 mg/kg IV, 1.00 h, individual animals 101M-103M): 944.6 ng/mL and 1358.7 ng/mL
- Plasma concentrations ([1]; 5 mg/kg IV, 2.00 h, individual animals 101M-103M): 355.3 ng/mL and 348.7 ng/mL
- Plasma concentrations ([1]; 5 mg/kg IV, 4.00 h, individual animals 101M-103M): 71.0 ng/mL and 80.3 ng/mL
- Plasma concentrations ([1]; 5 mg/kg IV, 8.00 h, individual animals 101M-103M): 35.2 ng/mL and 37.8 ng/mL
- Plasma concentrations ([1]; 5 mg/kg IV, 24.00 h, individual animals 101M-103M, LLOQ 2 ng/mL): BLQ
- AUCINF_pred [1, 2]: 3424.1 ng·h/mL and 4892.0 ng·h/mL
- AUClast [1, 2]: 3387.7 ng·h/mL and 4862.4 ng·h/mL
- Cl_pred [1, 2]: 15.2 mL/min/kg and 24.3 mL/min/kg and 17 mL/min/kg
- Cmax [1, 2]: 9197.2 ng/mL and 4387.4 ng/mL and 7116.5 ng/mL
- HL_Lambda_z (T1/2, h) [1, 2]: 0.98 h and 0.85 h
- MRTlast [1, 2]: 0.90 h and 0.77 h
- Vz_pred [1, 2]: 1.12 L/kg and 2.06 L/kg and 1.25 L/kg
- Cl_pred ([1]; 5 mg/kg IV, mean): 18.8 mL/min/kg
- Vz_pred ([1]; 5 mg/kg IV, mean): 1.48 L/kg
- Plasma concentrations ([1]; 30 mg/kg IP, 0.25 h, individual animals 201M-203M): 1507.7 ng/mL and 971.3 ng/mL
- Plasma concentrations ([1]; 30 mg/kg IP, 0.50 h, individual animals 201M-203M): 2007.7 ng/mL and 1751.8 ng/mL
- Plasma concentrations ([1]; 30 mg/kg IP, 1.00 h, individual animals 201M-203M): 3178.8 ng/mL and 2919.1 ng/mL
- Plasma concentrations ([1]; 30 mg/kg IP, 2.00 h, individual animals 201M-203M): 3158.8 ng/mL and 3638.0 ng/mL
- Plasma concentrations ([1]; 30 mg/kg IP, 4.00 h, individual animals 201M-203M): 2115.5 ng/mL and 1962.2 ng/mL
- Plasma concentrations ([1]; 30 mg/kg IP, 8.00 h, individual animals 201M-203M): 1428.1 ng/mL and 1227.0 ng/mL
- Plasma concentrations ([1]; 30 mg/kg IP, 24.00 h, individual animals 201M-203M): 185.0 ng/mL and 145.1 ng/mL
- AUCINF_pred [1, 3]: 29976.8 ng·h/mL and 27188.2 ng·h/mL
- AUClast [1, 3]: 28429.1 ng·h/mL and 26046.4 ng·h/mL
- Cl_F_pred [1, 3]: 22 mL/min/kg and 16.7 mL/min/kg and 18.3 mL/min/kg
- Cmax [1, 3]: 3178.8 ng/mL and 3638.0 ng/mL
- F % [1, 3]: 79.64% and 103.54% and 94.86%
- HL_Lambda_z (T1/2, h) [1, 3]: 5.85 h and 5.52 h
- MRTlast [1, 3]: 5.45 h and 5.15 h
- Tmax [1, 3]: 2.00 h
- Vz_F_pred [1, 3]: 10.11 L/kg and 8.44 L/kg and 8.78 L/kg
- Cl_F_pred ([1]; 30 mg/kg IP, mean): 19 mL/min/kg
- Vz_F_pred ([1]; 30 mg/kg IP, mean): 9.11 L/kg
- concentration at 0.25 h ([1]; C57, mouse, plasma, intraperitoneal, 30 mg/kg, 30 mg/kg IP, 0.25 h, individual animals 201M-203M, read-out: Plasma concentrations): 1490 ng/mL
- concentration at 0.25 h ([1]; C57, mouse, plasma, intraperitoneal, 30 mg/kg, 30 mg/kg IP, 0.25 h, mean, read-out: Plasma concentrations): 1320 ng/mL
- concentration at 0.5 h ([1]; C57, mouse, plasma, intraperitoneal, 30 mg/kg, 30 mg/kg IP, 0.50 h, individual animals 201M-203M, read-out: Plasma concentrations): 2270 ng/mL
- concentration at 0.5 h ([1]; C57, mouse, plasma, intraperitoneal, 30 mg/kg, 30 mg/kg IP, 0.50 h, mean, read-out: Plasma concentrations): 2010 ng/mL
- concentration at 1 h ([1]; C57, mouse, plasma, intraperitoneal, 30 mg/kg, 30 mg/kg IP, 1.00 h, individual animals 201M-203M, read-out: Plasma concentrations): 2990 ng/mL
